From EP4483954A1 (Masarykova Univerzita, priority 2023, dated 2025)

What was measured:
Format in all cases: biochemical
[1] = biological target: T1, DYRK2 (h) (Homo sapiens, UniProt Q92630); experiment: radiometric kinase assay (KinaseProfiler, Eurofins), DYRK2; conditions: in vitro radiometric kinase assay, tested at 1 nM to 10 000 nM, no pre-incubation; read-out: inhibitory activities (IC50 values) DYRK2
T1 construct: purchased Eurofins (KinaseProfiler)
T1 sequence (Q92630 1-601): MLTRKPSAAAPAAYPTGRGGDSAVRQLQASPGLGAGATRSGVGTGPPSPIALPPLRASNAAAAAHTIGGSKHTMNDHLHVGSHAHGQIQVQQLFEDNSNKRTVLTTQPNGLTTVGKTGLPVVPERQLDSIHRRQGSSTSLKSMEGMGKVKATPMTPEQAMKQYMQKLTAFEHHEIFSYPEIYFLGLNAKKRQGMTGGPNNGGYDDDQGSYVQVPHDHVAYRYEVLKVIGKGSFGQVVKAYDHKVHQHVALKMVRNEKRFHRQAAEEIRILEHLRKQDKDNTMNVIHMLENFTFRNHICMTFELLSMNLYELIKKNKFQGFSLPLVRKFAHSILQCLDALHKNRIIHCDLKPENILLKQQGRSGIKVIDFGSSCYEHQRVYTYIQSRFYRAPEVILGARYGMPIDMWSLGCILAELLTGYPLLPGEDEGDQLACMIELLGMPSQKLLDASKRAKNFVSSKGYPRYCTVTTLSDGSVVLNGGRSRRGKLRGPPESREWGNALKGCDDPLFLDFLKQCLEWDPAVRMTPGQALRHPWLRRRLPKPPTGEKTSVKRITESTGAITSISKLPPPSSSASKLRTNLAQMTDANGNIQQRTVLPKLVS
Method: (§1) The compounds were profiled in the radiometric assays (KinaseProfiler, Eurofins).
(§2) All compounds were prepared to 50x final assay concentration in 100% DMSO. This working stock of the compound was added to the assay well as the first component in the reaction, followed by the remaining components as detailed in the general assay protocols below. There was no pre-incubation step between the compound and the kinase prior to initiation of the reaction.
DYRK2 (h) was incubated with 8 mM MOPS pH 7.0, 0.2 mM EDTA, 2 mg/mL casein, 10 mM magnesium acetate and γ-^33P-ATP (specific activity and concentration as required). The reaction was initiated by the addition of the Mg/ATP mix. After incubation for 40 minutes at room temperature, the reaction was stopped by the addition of phosphoric acid to a concentration of 0.5%. An aliquot of the reaction was then spotted onto a filter and washed four times for 4 minutes in 0.425% phosphoric acid and once in methanol prior to drying and scintillation counting.
(§3) Kinase activity data were expressed as the percent remaining kinase activity in tested samples compared to the vehicle (DMSO) reactions. The compounds were tested at the following concentrations: 1 nM, 3 nM, 10 nM, 30 nM, 100 nM, 300 nM, 1000 nM, 3000 nM, and 10 000 nM; IC50 values and curve fits were then obtained.

[2] = biological target: T2, Haspin (h) (Homo sapiens, UniProt Q8TF76); experiment: radiometric kinase assay (KinaseProfiler, Eurofins), Haspin; conditions: in vitro radiometric kinase assay, tested at 1 nM to 10 000 nM, no pre-incubation; read-out: inhibitory activities (IC50 values) Haspin
T2 construct: purchased Eurofins (KinaseProfiler)
T2 sequence (Q8TF76 1-798): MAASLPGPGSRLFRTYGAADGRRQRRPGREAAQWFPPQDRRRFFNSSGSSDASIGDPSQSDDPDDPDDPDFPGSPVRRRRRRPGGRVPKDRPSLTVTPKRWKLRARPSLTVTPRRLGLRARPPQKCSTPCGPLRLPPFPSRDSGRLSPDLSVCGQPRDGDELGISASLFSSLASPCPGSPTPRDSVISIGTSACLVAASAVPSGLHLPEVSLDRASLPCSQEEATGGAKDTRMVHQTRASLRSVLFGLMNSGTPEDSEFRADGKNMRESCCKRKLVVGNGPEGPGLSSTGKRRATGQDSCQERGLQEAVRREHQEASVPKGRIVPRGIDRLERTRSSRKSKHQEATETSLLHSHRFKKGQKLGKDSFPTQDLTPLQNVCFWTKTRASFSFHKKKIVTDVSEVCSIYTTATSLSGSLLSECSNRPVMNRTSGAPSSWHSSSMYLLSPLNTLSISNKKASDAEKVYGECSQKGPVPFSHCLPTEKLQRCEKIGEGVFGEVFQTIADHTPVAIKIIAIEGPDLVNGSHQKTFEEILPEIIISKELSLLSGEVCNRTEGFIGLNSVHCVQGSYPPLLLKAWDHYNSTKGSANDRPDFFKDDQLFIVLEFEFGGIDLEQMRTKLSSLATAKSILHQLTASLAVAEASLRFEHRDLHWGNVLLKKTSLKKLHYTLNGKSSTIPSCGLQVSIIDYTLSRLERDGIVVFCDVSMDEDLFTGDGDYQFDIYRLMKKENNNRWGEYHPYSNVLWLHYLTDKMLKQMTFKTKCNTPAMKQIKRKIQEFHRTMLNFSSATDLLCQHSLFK
How it was run: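 Human Haspin in 8 mM MOPS pH 7.0 with 500 µM RARTLSFAEPG, 10 mM Mg acetate and γ-33P-ATP; compound added without preincubation. Reaction ran 40 min at room temperature, then filter-bound 33P was counted. Nine concentrations from 1 to 10 000 nM gave % remaining activity versus DMSO, and IC50 came from curve fit.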

[3] = biological target: T3, TAF1L(h) (Homo sapiens, UniProt Q8IZX4); experiment: radiometric kinase assay (KinaseProfiler, Eurofins), TAF1L; conditions: in vitro radiometric kinase assay, tested at 1 nM to 10 000 nM, no pre-incubation; read-out: inhibitory activities (IC50 values) TAF1L
T3 construct: purchased Eurofins (KinaseProfiler)
T3 sequence (Q8IZX4 whole entry): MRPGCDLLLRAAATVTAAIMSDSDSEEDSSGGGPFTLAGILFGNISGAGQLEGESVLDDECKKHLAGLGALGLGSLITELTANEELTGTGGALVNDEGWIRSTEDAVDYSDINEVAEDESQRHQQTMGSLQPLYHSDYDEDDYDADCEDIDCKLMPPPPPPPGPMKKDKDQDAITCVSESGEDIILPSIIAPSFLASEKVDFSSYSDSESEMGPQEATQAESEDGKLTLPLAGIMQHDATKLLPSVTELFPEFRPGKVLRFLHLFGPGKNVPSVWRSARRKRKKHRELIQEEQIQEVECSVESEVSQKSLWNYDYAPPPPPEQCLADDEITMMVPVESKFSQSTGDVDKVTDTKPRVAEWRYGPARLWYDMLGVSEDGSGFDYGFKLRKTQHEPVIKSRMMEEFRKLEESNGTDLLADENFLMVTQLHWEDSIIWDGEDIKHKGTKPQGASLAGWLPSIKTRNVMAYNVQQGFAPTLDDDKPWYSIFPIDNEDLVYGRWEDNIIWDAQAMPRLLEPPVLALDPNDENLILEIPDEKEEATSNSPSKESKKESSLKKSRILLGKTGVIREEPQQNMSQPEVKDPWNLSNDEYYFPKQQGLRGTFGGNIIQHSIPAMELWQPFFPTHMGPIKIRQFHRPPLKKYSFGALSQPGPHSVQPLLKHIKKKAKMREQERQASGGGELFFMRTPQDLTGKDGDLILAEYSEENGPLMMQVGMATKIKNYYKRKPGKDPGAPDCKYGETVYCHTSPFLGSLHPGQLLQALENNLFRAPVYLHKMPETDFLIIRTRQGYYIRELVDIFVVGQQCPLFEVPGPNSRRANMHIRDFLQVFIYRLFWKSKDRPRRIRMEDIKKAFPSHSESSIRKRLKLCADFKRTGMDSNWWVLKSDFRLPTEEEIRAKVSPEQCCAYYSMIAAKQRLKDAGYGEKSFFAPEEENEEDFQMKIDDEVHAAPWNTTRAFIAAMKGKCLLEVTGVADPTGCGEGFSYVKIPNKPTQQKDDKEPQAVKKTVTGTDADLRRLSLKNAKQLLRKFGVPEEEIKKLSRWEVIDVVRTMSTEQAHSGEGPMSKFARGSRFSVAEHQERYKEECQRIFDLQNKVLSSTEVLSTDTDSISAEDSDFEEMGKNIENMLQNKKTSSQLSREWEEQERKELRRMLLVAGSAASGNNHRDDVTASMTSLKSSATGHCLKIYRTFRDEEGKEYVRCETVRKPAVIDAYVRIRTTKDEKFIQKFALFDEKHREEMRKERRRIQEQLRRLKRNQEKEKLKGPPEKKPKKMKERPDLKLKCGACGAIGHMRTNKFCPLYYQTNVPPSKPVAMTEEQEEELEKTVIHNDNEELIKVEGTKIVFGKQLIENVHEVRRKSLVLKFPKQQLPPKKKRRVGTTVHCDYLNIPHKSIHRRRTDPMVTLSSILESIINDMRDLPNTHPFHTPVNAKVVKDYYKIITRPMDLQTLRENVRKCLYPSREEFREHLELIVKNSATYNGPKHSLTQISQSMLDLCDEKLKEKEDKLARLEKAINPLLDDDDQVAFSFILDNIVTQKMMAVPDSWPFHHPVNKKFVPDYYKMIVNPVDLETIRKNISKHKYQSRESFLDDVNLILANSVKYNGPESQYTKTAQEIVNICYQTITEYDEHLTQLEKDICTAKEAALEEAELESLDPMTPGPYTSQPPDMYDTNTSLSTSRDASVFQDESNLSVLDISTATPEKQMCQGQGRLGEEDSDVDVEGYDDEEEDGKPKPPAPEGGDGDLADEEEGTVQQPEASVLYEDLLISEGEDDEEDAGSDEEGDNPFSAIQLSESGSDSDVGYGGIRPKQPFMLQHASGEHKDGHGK
Method: as §1
Briefly, kinases were diluted in the buffer shown below prior to addition to the reaction mix: • CDKL3, TAF1L: 20 mM Tris/HCl pH 8.5, 0.2 mM EDTA, 0.1% β-mercaptoethanol, 0.01% Brij-35, 5% glycerol, 1 mg/ml BSA; • Haspin: 15 mM MOPS, 0.75 mM EDTA, 0.0075% Brij-35, 3.75% Glycerol, 150 mM NaCl, 0.1% β-mercaptoethanol, 1 mg/mLBSA; • CDKL4, CLK2, PIM1, TRB2: […], 1 mM EDTA, 0.01% Brij-35, 5% Glycerol, 0.1% β-mercaptoethanol, 1 mg/mL BSA.
as §2
TAF1L(h) was incubated with 20 mM Tris/HCl pH 8.5, 0.2 mM EDTA, 250 µM RRRFRPASPLRGPPK (SEQ ID NO. 1), 10 mM magnesium acetate and γ-^33P-ATP (specific activity and concentration as required). The reaction was initiated by the addition of the Mg/ATP mix. After incubation for 120 minutes at room temperature, the reaction was stopped by the addition of phosphoric acid to a concentration of 0.5%. An aliquot of the stopped reaction was spotted onto a filter and washed four times for 4 minutes in 0.425% phosphoric acid and once in methanol prior to drying and scintillation counting.
as §3

Row | Structure (SMILES) | IC50 [1] [nM] | IC50 [2] [nM] | IC50 [3] [nM]
1 | Cn1cc(-c2ccc3scc(C(O)c4ccccc4)c3n2)cn1 (stereo not drawn) [Preparative Example 74] | 3000 to 10000 | 3000 to 10000 | 100 to 499
2 | Cn1cc(-c2ccc3scc(Nc4ccccc4)c3n2)cn1 [Preparative Example 76, 5-(1-methyl-1H-pyrazol-4-yl)-N-phenylthieno[3,2-b]pyridin-3-amine] | 100 to 499 | 100 to 499 | 20 to 99
3 | CCn1cc(-c2ccc3scc(-c4ccncc4)c3n2)cn1 [Preparative Example 77, 5-(1-ethyl-1H-pyrazol-4-yl)-3-(pyridin-4-yl)thieno[3,2-b]pyridine] | 500 to 3000 | 500 to 3000 | 500 to 3000
4 | FC(F)(F)n1cc(-c2ccc3scc(-c4ccncc4)c3n2)cn1 [Preparative Example 78, 3-(pyridin-4-yl)-5-(1-(trifluoromethyl)-1H-pyrazol-4-yl)thieno[3,2-b]pyridine] | 3000 to 10000 | 3000 to 10000 | 3000 to 10000
5 | CC(C)n1cc(-c2ccc3scc(-c4ccncc4)c3n2)cn1 [Preparative Example 79, 5-(1-isopropyl-1H-pyrazol-4-yl)-3-(pyridin-4-yl)thieno[3,2-b]pyridine] | 3000 to 10000 | 500 to 3000 | 3000 to 10000
6 | c1ccc(Cn2cc(-c3ccc4scc(-c5ccncc5)c4n3)cn2)cc1 [Preparative Example 81, 5-(1-benzyl-1H-pyrazol-4-yl)-3-(pyridin-4-yl)thieno[3,2-b]pyridine] | 3000 to 10000 | 100 to 499 | 500 to 3000
7 | Cn1ncc(-c2ccc3scc(-c4ccncc4)c3n2)c1CC1CC1 [Preparative Example 82, 5-(5-(cyclopropylmethyl)-1-methyl-1H-pyrazol-4-yl)-3-(pyridin-4-yl)thieno[3,2-b]pyridine] | 3000 to 10000 | 100 to 499 | 500 to 3000
8 | Cn1cc(-c2ccc3scc(-c4ccncc4)c3n2)c(NC(=O)OC(C)(C)C)n1 [Preparative Example 83, tert-butyl(1-methyl-4-(3-(pyridin-4-yl)thieno[3,2-b]pyridin-5-yl)-1H-pyrazol-3-yl)carbamate] | 3000 to 10000 | 3000 to 10000 | 500 to 3000
9 | Cn1cc(-c2ccc3scc(-c4ccncc4)c3n2)c(N)n1 [Preparative Example 84, 1-methyl-4-(3-(pyridin-4-yl)thieno[3,2-b]pyridin-5-yl)-1H-pyrazol-3-amine] | 3000 to 10000 | 3000 to 10000 | 500 to 3000
10 | Cc1nn(C)c(C)c1-c1ccc2scc(-c3ccncc3)c2n1 [Preparative Example 85, 3-(pyridin-4-yl)-5-(1,3,5-trimethyl-1H-pyrazol-4-yl)thieno[3,2-b]pyridine] | 3000 to 10000 | 500 to 3000 | 500 to 3000
11 | Cn1ccc(-c2ccc3scc(-c4ccncc4)c3n2)n1 [Preparative Example 86, 5-(1-methyl-1H-pyrazol-3-yl)-3-(pyridin-4-yl)thieno[3,2-b]pyridine] | 3000 to 10000 | 20 to 99 | 500 to 3000
12 | Cn1nccc1-c1ccc2scc(-c3ccncc3)c2n1 [Preparative Example 90, 5-(1-methyl-1H-pyrazol-5-yl)-3-(pyridin-4-yl)thieno[3,2-b]pyridine] | 3000 to 10000 | 500 to 3000 | 500 to 3000
13 | Cn1cncc1-c1ccc2scc(-c3ccncc3)c2n1 [Preparative Example 91, 5-(1-methyl-1H-imidazol-5-yl)-3-(pyridin-4-yl)thieno[3,2-b]pyridine] | 500 to 3000 | 20 to 99 | 100 to 499
14 | Cn1cc(-c2ccc3scc(-c4ccncc4)c3n2)nn1 [Preparative Example 93, 5-(1-methyl-1H-1,2,3-triazol-4-yl)-3-(pyridin-4-yl)thieno[3,2-b]pyridine] | 3000 to 10000 | 500 to 3000 | 500 to 3000
15 | Cn1ncc(-c2ccc3scc(-c4ccncc4)c3n2)n1 [Preparative Example 94, 5-(2-methyl-2H-1,2,3-triazol-4-yl)-3-(pyridin-4-yl)thieno[3,2-b]pyridine] | 3000 to 10000 | 500 to 3000 | 500 to 3000
16 | Cn1ccc(Nc2ccc3scc(-c4ccncc4)c3n2)n1 [Preparative Example 99, N-(1-methyl-1H-pyrazol-3-yl)-3-(pyridin-4-yl)thieno[3,2-b]pyridin-5-amine] | 3000 to 10000 | 20 to 99 | 500 to 3000
17 | c1cc(-c2csc3ccc(Nc4cc[nH]n4)nc23)ccn1 [Preparative Example 101, N-(1H-pyrazol-3-yl)-3-(pyridin-4-yl)thieno[3,2-b]pyridin-5-amine] | 500 to 3000 | 20 to 99 | 20 to 99
18 | Fc1cc(-c2ccc3scc(-c4ccccc4)c3n2)cc(F)c1F [Preparative Example 122, 3-phenyl-5-(3,4,5-trifluorophenyl)thieno[3,2-b]pyridine] | 3000 to 10000 | 3000 to 10000 | 3000 to 10000
19 | c1ccc(-c2csc3ccc(-c4ccoc4)nc23)cc1 [Preparative Example 123, 5-(furan-3-yl)-3-phenylthieno[3,2-b]pyridine] | 3000 to 10000 | 3000 to 10000 | 3000 to 10000
20 | c1ccc(-c2csc3ccc(-c4cnoc4)nc23)cc1 [Preparative Example 124, 4-(3-phenylthieno[3,2-b]pyridin-5-yl)isoxazole] | 3000 to 10000 | 3000 to 10000 | 3000 to 10000
21 | Cn1cc(-c2csc3ccc(Oc4ccccc4)nc23)cn1 [Preparative Example 139, 3-(1-methyl-1H-pyrazol-4-yl)-5-phenoxythieno[3,2-b]pyridine] | 3000 to 10000 | 100 to 499 | 500 to 3000
